One compound from PMC6063448, “Antimicrobial activity of linear lipopeptides derived from BP100 towards plant pathogens” (PLoS ONE, 2018) can be followed below.

Each structure is given as a SMILES string.

In series [1] the test system is Erwinia amylovora PMV6076. As to the kind of experiment: MIC, growth inhibition in microtiter plates (TSB). Format: cell-based. The following applies: Ea, 25°C, 48 h, OD 600 nm, lowest concentration with no growth, given as interval of tested concentrations, three replicates, experiment repeated twice. The gist of the method: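 Peptides, dissolved in water at 1 mM and filter-sterilized, were diluted and mixed with bacterial suspension (10^8 CFU mL^-1 before mixing) in TSB. Plates were incubated at 25°C with shaking, and OD600 was read hourly for 48 h. MIC was the lowest concentration with no growth at the end.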

Series [2] concerns Pseudomonas syringae pv. actinidiae Psa3700.1.1. As to the kind of experiment: MIC, growth inhibition in microtiter plates (TSB). Format: cell-based. The following applies: Psa, 25°C, 48 h, OD 600 nm, lowest concentration with no growth, given as interval of tested concentrations, three replicates, experiment repeated twice. A digest of the protocol:
(§1)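 Agar-grown cells in water (10^8 CFU mL^-1 stock suspension) + serially diluted peptide (1 mM water stock) in TSB; 25°C, 48 h, OD600 hourly; no-growth endpoint gives MIC.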

The test system of series [3] is Pseudomonas syringae pv. syringae EPS94. As to the kind of experiment: MIC, growth inhibition in microtiter plates (TSB). Format: cell-based. The following applies: Pss, 25°C, 48 h, OD 600 nm, lowest concentration with no growth, given as interval of tested concentrations, three replicates, experiment repeated twice. The gist of the method: as §1
Series [4] has as its system Xanthomonas arboricola pv. pruni CFBP5563. Description: MIC, growth inhibition in microtiter plates (TSB). Format: cell-based. The following applies: Xap, 25°C, 48 h, OD 600 nm, lowest concentration with no growth, given as interval of tested concentrations, three replicates, experiment repeated twice. The gist of the method:
as §1

The subject of series [5] is Xanthomonas axonopodis pv. vesicatoria 2133–2. As to the kind of experiment: MIC, growth inhibition in microtiter plates (TSB). Format: cell-based. The following applies: Xav, 25°C, 48 h, OD 600 nm, lowest concentration with no growth, given as interval of tested concentrations, three replicates, experiment repeated twice. A digest of the protocol: as §1
The subject of series [6] is Xanthomonas fragariae Xf349-9A. Description: MIC, growth inhibition in microtiter plates (TSB). It counts as cell-based. The following applies: Xf, 25°C, 48 h, OD 600 nm, lowest concentration with no growth, given as interval of tested concentrations, three replicates, experiment repeated twice. A digest of the protocol: as §1
Series [7] relates to Fusarium oxysporum f. sp. lycopersici FOL 3 race 2. Description: MIC, antifungal growth inhibition in microtiter plates (PDB). Format: cell-based. The following applies: Fo, 22°C, seven days, OD 600 nm, lowest concentration with no growth, given as interval of tested concentrations, three replicates, experiment repeated twice. The gist of the method: (§2)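 Conidial suspensions (10^3 conidia/mL P. expansum, 10^4 F. oxysporum) incubated with peptides in PDB with 0.003% chloramphenicol at 22 °C for seven days, OD600 read every 2 h. MIC is the lowest concentration with no growth at the end; triplicates, experiment repeated twice.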

The subject of series [8] is Penicillium expansum EPS26. The description is as above. Format: cell-based. The following applies: Pe, 22°C, seven days, OD 600 nm, lowest concentration with no growth, given as interval of tested concentrations, three replicates, experiment repeated twice. A digest of the protocol:
as §2

A further series has as its system tobacco leaves. As to the kind of experiment: Effect of peptide infiltration on tobacco leaves. The following applies: 250 μM, 100 μL infiltrated into mesophyll, measured after 48 h. Format: in vivo. The method, then:
BP100 and the 36 lipopeptides were evaluated for their effect upon infiltration on tobacco leaves as described previously. Peptide solutions of 50, 150 and 250 μM were infiltrated (100 μL) into the mesophylls of fully expanded tobacco leaves. Infiltrations were carried out in a single leaf, and for each peptide and dose, at least three leaves randomly distributed in different plants were inoculated. Control infiltrations with water (negative control) or melittin (positive control) at the same molar concentration were performed. The appearance of symptoms on the leaves was followed for 48 h after infiltration and measured as a lesion diameter.

In another series the test system is T1, proteinase K.
T1 construct: purchased Sigma-Aldrich Corporation, Spain
Description: Susceptibility to protease degradation. Format: in vitro ADME. The following applies: proteinase K (isolated protease) in TRIS buffer; 50 μg/mL peptide, 1 μg/mL proteinase K, 100 mM TRIS buffer pH 7.6, 25°C, 60 min; decrease of HPLC peak area (220 nm); read-out: Digestion with proteinase K (percentage of degraded peptide). The procedure: Digestion of BP100 and of 16 selected lipopeptides was carried out by treating 50 μg/mL peptide with 1 μg/mL proteinase K (Sigma-Aldrich Corporation, Spain) in 100 mM TRIS buffer, pH 7.6, at 25°C. The peptide cleavage after 60 min was determined by HPLC using a Kromasil (4.6 × 40 mm; 3 μm particle size) C18 reverse-phase column. Linear gradients of 0.1% aqueous TFA and 0.1% TFA in CH3CN were run from 0.98:0.02 to 0:1 over 12 min with UV detection at 220 nm. Digestion was estimated as the percentage of degraded lipopeptide calculated from the decrease of the HPLC peak area of the native peptide.

In general, MIC refers to the lowest concentration found to suppress growth. Take `CCCCCC(=O)NCCCC[C@H](NC(=O)[C@H](CCCCN)NC(=O)[C@H](CCCCN)NC(C)=O)C(=O)N[C@@H](Cc1ccccc1)C(=O)N[C@@H](CCCCN)C(=O)N[C@@H](CCCCN)C(=O)N[C@H](C(=O)N[C@@H](CC(C)C)C(=O)N[C@@H](CCCCN)C(=O)N[C@@H](Cc1ccc(O)cc1)C(=O)N[C@@H](CC(C)C)C(N)=O)[C@@H](C)CC` [BP370, Ac-KKK(COC5H11)FKKILKYL-NH2]: the MIC in series [1] is 3.1 to 6.2 µM; in series [2], 3.1 to 6.2 µM; in series [3], 3.1 to 6.2 µM; in [4], 3.1 to 6.2 µM; in [5], 3.1 to 6.2 µM; in series [6], 6.2 to 12.5 µM. The MIC was 0.8 to 1.6 µM in series [7] and 6.2 to 12.5 µM in [8]. For the same compound, the “Size of the lesions in infiltrated tobacco leaves (diameter)” value in the series with tobacco leaves stood at 5.0 ± 1.6 mm. For the same compound, in the series on proteinase K, the metabolised at 1 h, 50 μg/mL turned out to be 26%.
